Assay results from patent publication US11020422B2, “Cyclodextrin for the treatment of lysosomal storage diseases” (The United States of America, as represented by the …, priority 2012, dated 2021).
Where two headings read alike, the source gives them in different places.

Assays:
[1] = tested on: fibroblasts derived from patients with lysosomal storage diseases; test: LysoTracker dye staining of enlarged lysosomes; assay type: cell-based, human
Description: On the experimental day, cells were live-stained with 100 μl/well 50 nM LysoTracker-Red DND-99 dye (Invitrogen, #L-7528) in medium at 37° C. for 1 hr followed by plate washing twice with PBS. The plate was then fixed in 100 μl/well 3.2% formaldehyde for 1 hr and washed for two times with PBS. […] After washing twice with PBS, the plates were stored at 4° C. until imaging analysis. DAPI filter set and TRITC filter set in the Incell2000 imaging plate reader were used to visualize Hoechst nuclear staining and LysoTracker staining, respectively.
FIG. 5. […] To test this hypothesis we measured the ability of delta-T to decrease acidic/lysosomal compartment size as determined by LysoTracker staining in fibroblasts derived from patients with six other diseases. Lysosomal storage occurs in these fibroblasts consists of ceroid/lipofuscin in Batten (CLN2), globotriaosylceramide in Fabry, ceramide in Farber, sphingomyelin in NPA, partially degraded heparan sulfate in Sanfilippo type B, and GM2 ganglioside in Tay-Sachs (Table S1).
The effect of various cyclodextrins, δ-tocopherol, and combinations of cyclodextrins and δ-tocopherol on lipid accumulation and lysosome size in wild-type and lysosomal storage disease fibroblasts (Wolman, Tay-Sach, Fabry, Farber, and MPSIIIB fibroblasts) was determined using Lysotracker assay. In brief, cells were treated with various combinations and concentrations of drugs followed by staining with the Lyso tracker dye which is a basophilic fluorescent probe that accumulates in acidic compartments, i.e. lysosomes, within the cell.

Wolman fibroblasts [2] = test: β-Hexosaminidase (HEXB) release, lysosomal exocytosis; assay type: cell-based, human; conditions: 40 μM, 24 hours, compared with vehicle treated cells
Description: Measurement of β-Hexosaminidase (HEXB) Release—Fibroblasts were cultured in 24-well plates at 30,000 cells/well in 0.4 ml medium for one day at 37° C. After being washed twice with the assay buffer (DMEM with 2 mM D-mannose 6-phosphate sodium salt), the cells with 0.4 ml/well the assay buffer were incubated at 37° with 0.2 ml/well compound in assay buffer. […] The rest of assay buffer in the 24-well plate was discarded followed by addition of 0.6 ml 1% Triton-X100 in dH2O to lyse the cells. After incubation at 37° C. for 30 min. 6 μl/well cell lysate were added to the 96-well plate with 24 μl assay buffer followed by 90 μl/well 2.25 mM HEXB substrate, 4-Methylumbelliferyl N-acetyl-β-D-glucosaminide (Sigma-Aldrich, #M2133), in a 25 mM citric acid buffer at pH 4.5. The 96-well plate was then measured in the Tecan fluorescence plate reader (Ex=365±20 nm and Em=460±20 nm) after 1 hr incubation at 37° C. and addition of 100 μl/well stop solution (1 M glycine and 1 M NaOH at pH 10.5).
FIG. 3. […] We measured lysosomal exocytosis in delta-T-treated Wolman fibroblasts by determining the activity of beta-hexosaminidase (HEXB), a lysosomal enzyme, in the extracellular medium.
In brief, the level of lysosomal exocytosis was determined by measuring the level of the lysosomal enzyme HEXB secreted into the culture medium following treatment with drug.

NPC1 fibroblasts = test: Lysosomal Ca2+ released by GPN in NPC1 fibroblasts; assay type: cell-based, human; conditions: 40 μM, 24 hours
Excerpt: (§1) FIG. 4. (calcium assay) Delta-T increases intracellular Ca^2+ concentration and ameliorates lysosomal calcium deficiency in NPC1 cells—Increase in the concentration of intracellular Ca^2+, an important second messenger, triggers a variety of cellular responses including lysosomal exocytosis. In NPC1 fibroblasts there is a dysregulation of calcium homeostasis, as evidenced by lysosomal Ca^2+ deficiency. […] Consistent with an earlier report, lysosomal Ca^2+ was reduced in NPC1 cells compared with that in control cells.

[3] = tested on: NPC1 and Wolman fibroblasts, control fibroblasts; test: Intracellular cytosolic Ca2+ measurement (Fluo-8); assay type: cell-based, human
Excerpt: as §1

NPC1-NSCs = test: Amplex-red cholesterol assay in NPC1 neural stem cells; assay type: cell-based, human
Description: (§2) Amplex-Red Cholesterol Assay—Total cholesterol in patient cells was measured by the Amplex-Red Cholesterol Assay Kit (Invitrogen). The unesterified cholesterol was determined using the same kit without the enzyme […]. Esterified cholesterol was determined as the difference between the total and unesterified cholesterol values. The cells were seeded to black, tissue culture-treated 96-well, 384-well or 1536-well plates at 4000, 1000, 300 cells/well in 100, 20 or 5 μl medium by a Multidrop Combi dispenser (Thermo Scientific, Waltham, Mass.) and cultured for 24 hr. The assay plates were added with compound dilution in DMSO solution using a Pintool station (Klaypsys, San Diego, Calif.) and cultured for 3 days. The cells were washed twice manually for 96-well or 384-well plates or using a centrifugation method in which the inverted plates were placed on a stack of paper towel and centrifuged at 800 rpm for 1 min followed by addition of 7 μl/well PBS (added gently with a 45 degree angled liquid dispenser (Klaypsys). The cholesterol assay mixture from the kit was added at 100, 20 or 2.5 μl/well for 96-well, 384-well or 1536-well plates and incubated for 1 hr at 37° C. The resulted fluorescence intensity was measured with excitation of 560 (±10) and emission of 590 (±10) in a fluorescence plate reader (Tecan, Durham, N.C.).
Induced pluripotent stem cells (IPSCs) from the NPC1 skin fibroblasts were generated and differentiated into neural stem cells (NPC1-NSCs).

NPC cells = conditions: NPC / NPC1 cells; reported; cited from earlier work
[4] = tested on: NPC1, Wolman and other lysosome storage disorder fibroblasts; test: Electron microscopy of lysosomal ultrastructure
Description: Electron Microscopy—Fibroblast cells were seeded in 6-well plates at 150,000 cells/well in 5 ml medium and cultured for 1 day in the presence or absence of compounds. Cells were fixed in 2% glutaraldehyde, 0.1 M cacodylate buffer, pH 7.2 for 1 hr at room temperature and then stored at 4° C. until TEM analysis was performed. The cells were post fixed in 1% osmium tetroxide in the same buffer for 1 hour and en bloc stained with 0.5% uranyl acetate in 0.1 M acetate buffer, pH 4.2. The cells were then dehydrated in graded ethanol solutions (35%, 50%, 70%, 95% and 100%) and infiltrated overnight in epoxy resin (Poly/Bed 812, Polysciences). After adding fresh pure resin the cell plates were cured for 72 h in 55° C. After removing the polystyrene plates, suitable areas for thin sectioning were selected, cut out with a jewelry saw and glued onto empty resin stubs. About 70 nm thin sections were cut on an ultramicrotome (Leica EM UC6) and mounted on naked copper grids. The thin sections were double stained (uranyl acetate and lead citrate), examined in a Hitachi H-7650 transmission electron microscope, and images were taken using an AMT CCD camera.
The effects of δ-tocopherol and methyl-β-cyclodextrin on the ultrastructural pathology of lysosomes in lysosome storage disorder cells were investigated by electron microscopy. In brief, following treatment of wild-type and lysosome storage disorder fibroblasts with δ-tocopherol, methyl-β-cyclodextrin, or δ-tocopherol and methyl-β-cyclodextrin, the fibroblasts were fixed and embedded. Thin sections of the embedded cells were then prepared and the ultrastructural pathology was examined by electron microscopy. […] The effects of δ-tocopherol and/or methyl-β-cyclodextrin on the ultrastructural pathology of other lysosome disorder fibroblasts-Farber (FIGS. 7,8 and 10); Tay-Sachs (FIG. 8); Fabry (FIG. 8); Wolman (FIG. 9); NPA (FIG. 9); Batten (FIG. 9); MSIIB (FIG. 9)—were analyzed by electron microscopy.

NPC1 skin fibroblasts = test: Cholesterol accumulation (Amplex-red, filipin) and enlarged lysosomes (Lysotracker) in NPC1 skin fibroblasts; assay type: cell-based, human; conditions: NPC1 skin fibroblasts; concentration dependent
Description: as §2

Wolman fibroblasts [5] = test: Amplex-Red cholesterol assay in Wolman fibroblasts; assay type: cell-based, human; conditions: Wolman fibroblasts
Description: as §2

Wolman fibroblasts [6] = test: Nile Red staining of neutral lipids in Wolman fibroblasts; conditions: cultured with compound for 3 days
Description: Nile-red Staining—The cells were cultured and treated as described above in 96-well plates. On the experimental day, cells were washed two times with PBS and live-stained with 1 μM Nile-red dye solution (prepared in cell culture medium) at 100 μl/well followed by an incubation at 37° C. for 10 min. After washed twice with PBS, the cells were fixed in 3.2% paraformaldehyde in PBS at 100 μl/well 1 μg/ml Hoechst 33342 (Invitrogen) in PBS and incubation at RT for 30 min. The plate was washed twice with PBS and the images were measured in Incell2000 imaging plate reader with a FTTC filter set (Ex=480±20 nm and Ex=525±36 nm) for the neutral lipids (cholesteryl esters and triglycerides) and a DAPI filter set for Hoechst nuclear staining.
(Nile Red) Cells were cultured in the presence of delta tocopherol, alpha tocopherol and MBCD plus in combination for 3 days and then stained for neutral lipid with Nile red.
Wolman fibroblasts were treated with δ-tocopherol, α-tocopherol, methyl-β-cyclodextrin, or combinations of δ-tocopherol and methyl-β-cyclodextrin or α-tocopherol and methyl-β-cyclodextrin. […] To further characterize the effect of treatment on lipid accumulation, treated fibroblasts were evaluated using a Nile Red assay to measure neutral lipid accumulation. […] The Nile Red staining was visualized by fluorescent microscopy.

Cc1cc(O)cc2c1O[C@](C)(CCC[C@H](C)CCC[C@H](C)CCCC(C)C)CC2 [delta-tocopherol]
LysoTracker staining ([1]; 40 μM, six fibroblast lines: Batten (CLN2), Fabry, Farber, NPA, Sanfilippo type B, Tay-Sachs): significantly reduced the LysoTracker staining
LysoTracker staining ([1]; NPC1 and Wolman fibroblasts, 40 μM delta-T or 300 μM MBCD): significantly reduced LysoTracker staining
lipid accumulation and lysosome size (Lysotracker) ([1]; Wolman, Tay-Sach, Fabry, Farber, MPSIIIB fibroblasts, FIGS. 5A-5D): reduced lipid accumulation and lysosome size
HEXB activity in culture medium (Wolman fibroblasts [2]): increased
lysosomal Ca2+ released by GPN (NPC1 fibroblasts): significantly increased lysosomal Ca^2+
cytosolic Ca2+ [3]: stimulated a transient increase of cytosolic Ca^2+
potency in NPC1 neuronal cells compared to NPC1 skin fibroblasts (NPC1-NSCs): weaker
cholesterol accumulation, combination therapy experiment (NPC1-NSCs; 50 μM HBPCD, 10 μM delta-tocopherol, alone or combined, compared with 5 mM HBPCD): did not show the significant cholesterol reduction effect
IC50 (NPC1-NSCs; NPC1-NSCs, FIG. 12A, read-out: IC50, Amplex-red cholesterol assay): 18 µM
IC50 (NPC1-NSCs; human NPC1 neural stem cells, values given under dosage recommendations, read-out: IC50 on reduction of cholesterol accumulation, Amplex-red cholesterol assay): 15 µM
cholesterol efflux, accumulation or storage (NPC cells): increased the cholesterol efflux from NPC cells and reduced cholesterol accumulation
characteristic storage materials in lysosomes (electron microscopy) ([4]; 40 μM, NPC1 and Wolman cells): significantly reduced the characteristic storage materials
abnormal lysosomal structures (electron microscopy) ([4]; Wolman fibroblasts, FIG. 6): significantly reduced
unesterified cholesterol accumulation (Amplex Red) (NPC1 skin fibroblasts): dramatically reduces cellular cholesterol accumulation
reduction in total cholesterol (Wolman fibroblasts [5]; FIGS. 1A-1C): significant reduction
reduction in free cholesterol (Wolman fibroblasts [5]; FIGS. 1D-1F): significant reduction
neutral lipid accumulation (Nile red) (Wolman fibroblasts [6]; FIG. 2): reduces accumulation of neutral lipids
neutral lipid accumulation (Nile red) (Wolman fibroblasts [6]; FIG. 2, listed as δ-tocopherol): significantly reduced
